Reference: patent US10745397B2, “1-Substituted 1,2,3,4-tetrahydro-1,7-naphthyridin-8-amine derivatives and their use as EP4 receptor antagonists” (TAKEDA PHARMACEUTICAL COMPANY LIMITED, priority 2015, dated 2020)

Key:
human EP4 receptor = biological target: T1, human EP4 receptor (Homo sapiens, UniProt P35408); experiment: hEP4 radioligand binding assay ([3H] PGE2 competitive binding, membrane fractions); conditions: 300 nM compound; 1 nM [3H] PGE2
T1 construct: expressed in transfected cells; host or cells: FreeStyle293 (HEK293F) cells, transient transfection with pcDNA3.1(+), total membrane fraction
T1 sequence (P35408 whole entry): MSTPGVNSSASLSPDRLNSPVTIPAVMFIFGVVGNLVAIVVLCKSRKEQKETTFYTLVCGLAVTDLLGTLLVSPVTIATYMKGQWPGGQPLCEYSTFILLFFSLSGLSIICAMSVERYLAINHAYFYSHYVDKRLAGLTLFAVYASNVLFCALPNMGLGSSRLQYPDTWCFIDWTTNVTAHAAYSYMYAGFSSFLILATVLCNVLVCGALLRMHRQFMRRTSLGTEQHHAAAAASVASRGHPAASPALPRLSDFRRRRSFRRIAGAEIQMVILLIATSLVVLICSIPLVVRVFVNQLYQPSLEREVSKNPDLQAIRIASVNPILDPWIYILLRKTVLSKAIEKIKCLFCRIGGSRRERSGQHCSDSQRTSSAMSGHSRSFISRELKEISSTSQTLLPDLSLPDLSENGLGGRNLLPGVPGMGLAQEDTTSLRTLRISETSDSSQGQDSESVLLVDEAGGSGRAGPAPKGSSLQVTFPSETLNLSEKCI
From the text: The full-length coding sequences for human EP1 (NM_000955), human EP2 (NM_000956), human EP3 (NM_198717) and human EP4 (NM_000958) were cloned into pcDNA3.1(+) vector (Life Technologies, CA, USA). In order to prepare overexpressed EP 1-4 membrane in Freestyle293 cells (Life Technologies, CA, USA), the pcDNA3.1(+) vector encoding a cDNA of the relevant gene was transiently transfected into FreeStyle293 cells using 293Fectin (Life Technologies, CA, USA) according to the manufacturer instruction manual. After 2 days, cultured cells were centrifuged (1,000×g, 10 min, 4° C.) and pellets homogenized by a probe sonicator (Sonics vibracell, Sonics and Materials Inc., USA; 31% Amp, 5 sec pulse, Imin interval, 4 cycles) in ice-cold 50 mM Tris-HCl buffer (pH 7.5 at 25° C.) containing 0.5 mM EDTA, 250 mM Sucrose and 10 mM MgCl2. Cell homogenates were centrifuged (890×g, 10 min, 4° C.), and the supernatant was recovered. Total membrane fractions were isolated by ultracentrifugation (140,000×g, 60 min, 4° C.). Pellets were re-suspended in the same buffer, and stored at −80° C. until use. The protein concentration in homogenate was determined with the BCA Protein Assay Kit (Pierce Biotechnology, Inc., IL, USA) according to the manufacturer protocol.
The binding affinity of the compounds was evaluated using a competitive radioligand binding assay which measured the specific binding of [3H] PGE2 to the human EP4 receptor. Briefly, varying concentrations of NCEs were incubated with cell membrane fractions generated HEK293F cells transiently transfected with human EP4 receptor as described above. Each reaction consisted of 10 μg membrane protein and NCE in 50 mM Tris-HCl, pH-6.0 by NaOH, 10 mM MgCl2 and 0.5 mM EDTA assay buffer. Radioligand, [3H] PGE2 (American Radiochemicals Inc. Specific Activity 180 Ci/mmol), at a final of 1 nM was added to each reaction where the final assay volume was 200 μL and concentration of DMSO was adjusted to 1%. Appropriate controls included total binding in the assay (vehicle control) and control for non-specific binding. Non-specific binding was evaluated by incubating the hEP4 protein with 10 μM unlabeled PGE2 under the same assay conditions as NCEs. The reaction was incubated at room temperature for 2 hours and terminated by harvesting the reaction contents to a PEI coated GF/C filter plate (PerkinElmer). The plate was washed four times with cold 50 mM Tris-HCl, pH-7.5 wash buffer and dried at 50° C. for 2 hours or at 37° C. overnight. [3H] PGE2 bound to the protein was quantified by the addition of 25 μL of Microscint PS (PerkinElmer) and plate was read on MicroBeta2 liquid Scintillation and luminescence counter (PerkinElmer). Data was analyzed using GraphPad Prism 5 (GraphPad Software Inc., San Diego, Calif.) where non-specific binding was normalized to 0% specific binding of [3]PGE2 and vehicle control (DMSO) was normalized to 100% specific binding of [3]PGE2. Binding affinity of NCEs, Ki, was generated using One site—Fit Ki equation in GraphPad Prism 5.

[1] = biological target: T2, hEP4 (C6 glioma cells overexpressing hEP4) (Homo sapiens, UniProt P35408); experiment: hEP4 cell based assay (cAMP), inhibition of PGE2 induced cAMP, HTRF; conditions: 1 μM compound, PGE2 at EC80
T2 construct: host or cells: C6 glioma cells overexpressing hEP4
T2 sequence (P35408 whole entry): as above
Protocol: The functional assay for hEP4 activation and inhibition was carried out via the quantitative determination of agonist, PGE2, induced cAMP response using HTRF in a competitive immunoassay (Cisbio dynamic 2 kit). NCEs at varying concentrations were evaluated for inhibition of PGE2 induced increase in cAMP. Briefly, C6 glioma cells overexpressing hEP4 (Takeda) were cultured in DMEM (low glucose, pyruvate), 10% FBS (Gibco) and PenStep. The cells were harvested on the day of the assay, washed with HBSS+10 mM HEPES (pH 7.4)+0.1% BSA buffer and pre-incubated with varying concentrations of NCE. Each reaction contained 7000 cells and NCEs in HBSS+10 mM HEPES+0.1% BSA assay buffer along with PDE inhibitors IBMX and Ro 20-1724 (final concentration of each inhibitor […]). Following 15 min pre-incubation, the cells were treated with EC80 concentration of agonist PGE2 for 30 min to induce cAMP. Final volume of the assay was 6 μL and DMSO concentration was maintained at 1%. The reaction was terminated with the addition of cAMP labeled with the dye d2 in lysis buffer according to manufacturers' protocol. This was followed by the addition of the anti-cAMP antibody labeled with Cryptate according to the manufacturers' protocol. The reaction was incubated at room temperature in dark for 45 min and the plate was evaluated for fluorescence at 665 nm (FRET) and 620 nm (cryptate emission) on a Flexstation III microplate reader (Molecular Devices, Sunnyvale, Calif.) Ex max: 313 nm; Em1: 620 nm; Em2: 665 nm. Data was analyzed using GraphPad Prism 5 (GraphPad Software Inc., San Diego, Calif.) where cells treated with agonist (EC80) was normalized to 0% inhibition of hEP4 and cells treated with buffer (no agonist) was normalized to 100% inhibition of hEP4. IC50 of NCEs was generated using non-linear regression—Log(inhibitor) vs. response equation in GraphPad Prism 5.

inhibition at 0.3 µM (human EP4 receptor) [%] | inhibition at 1 µM [1] [%] | Compound
89 | 100 | C[C@H](Nc1nccc2c1N(Cc1ccc(F)c(F)c1)CCO2)c1ccc(C(=O)O)cc1 [Example B6, 4-[(1S)-1-[[4-[(3,4-difluorophenyl)methyl]-2,3-dihydropyrido[4,3-b][1,4]oxazin-5-yl]amino]ethyl]benzoic acid]
100 | 96 | C[C@H](Nc1nccc2c1N(Cc1ccc3ccccc3c1)CCO2)c1ccc(C(=O)O)cc1 [Example B29, 4-[(1S)-1-[[4-(2-naphthylmethyl)-2,3-dihydropyrido[4,3-b][1,4]oxazin-5-yl]amino]ethyl]benzoic acid]
100 | 74 | COc1cccc(CN2CCOc3ccnc(NC4(c5ccc(C(=O)O)cc5)CC4)c32)c1 [Example B23, 4-[1-[[4-[(3-methoxyphenyl)methyl]-2,3-dihydropyrido[4,3-b][1,4]oxazin-5-yl]amino]cyclopropyl]benzoic acid]
93 | 100 | C[C@H](Nc1nccc2c1N(Cc1cccc(C(F)(F)F)c1)CCO2)c1ccc(C(=O)O)cc1 [Example B14, 4-[(1S)-1-[[4-[[3-(trifluoromethyl)phenyl]methyl]-2,3-dihydropyrido[4,3-b][1,4]oxazin-5-yl]amino]ethyl]benzoic acid]
100 | 93 | C[C@H](Nc1nccc2c1N(CC1CCCCC1)CCO2)c1ccc(C(=O)O)cc1 [Example B39, 4-[(1S)-1-[[4-(cyclohexylmethyl)-2,3-dihydropyrido[4,3-b][1,4]oxazin-5-yl]amino]ethyl]benzoic acid]
88 | 90 | C[C@H](Nc1nccc2c1N(Cc1ccc(C(F)(F)F)cc1)CCO2)c1ccc(C(=O)NOCc2ccccc2)cc1 [Example D5, N-benzyloxy-4-[(1S)-1-[[4-[[4-(trifluoromethyl)phenyl]methyl]-2,3-dihydropyrido[4,3-b][1,4]oxazin-5-yl]amino]ethyl]benzamide]
98 | 99 | COc1ccc(CN2CCOc3ccnc(N[C@@H](C)c4ccc(C(=O)O)cc4)c32)cc1 [Example B15, 4-[(1S)-1-[[4-[(4-methoxyphenyl)methyl]-2,3-dihydropyrido[4,3-b][1,4]oxazin-5-yl]amino]ethyl]benzoic acid]
93 | 87 | Cc1ccc(CN2CCOc3ccnc(NC4(c5ccc(C(=O)O)cc5)CC4)c32)cc1 [Example B26, 4-[1-[[4-(p-tolylmethyl)-2,3-dihydropyrido[4,3-b][1,4]oxazin-5-yl]amino]cyclopropyl]benzoic acid]
93 | 100 | C[C@H](Nc1nccc2c1N(Cc1ccccc1)CCO2)c1ccc(C(=O)O)cc1 [Example B1, 4-[(1S)-1-[(4-Benzyl-2,3-dihydropyrido[4,3-b][1,4]oxazin-5-yl)amino]ethyl]benzoic acid]
96 | 86 | O=C(O)c1ccc(C2(Nc3nccc4c3N(Cc3cc(F)cc(F)c3)CCO4)CC2)cc1 [Example B17, 4-[1-[[4-[(3,5-difluorophenyl)methyl]-2,3-dihydropyrido[4,3-b][1,4]oxazin-5-yl]amino]cyclopropyl]benzoic acid]
100 | 92 | C[C@H](Nc1ncc(Cl)c2c1N(Cc1ccc(C(F)(F)F)cc1)CCO2)c1ccc(C(=O)O)cc1 [Example G1, 4-[(1S)-1-[[8-Chloro-4-[[4-(trifluoromethyl)phenyl]methyl]-2,3-dihydropyrido[4,3-b][1,4]oxazin-5-yl]amino]ethyl]benzoic acid]
81 | 90 | C[C@H](Nc1nccc2c1N(CCOc1ccc(F)cc1)CCO2)c1ccc(C(=O)O)cc1 [Example B3, 4-[(1S)-1-[[4-[2-(4-Fluorophenoxy)ethyl]-2,3-dihydropyrido[4,3-b][1,4]oxazin-5-yl]amino]ethyl]benzoic acid]
97 | 100 | Cc1cccc(CN2CCOc3ccnc(N[C@@H](C)c4ccc(C(=O)O)cc4)c32)c1 [Example B10, 4-[(1S)-1-[[4-(m-tolylmethyl)-2,3-dihydropyrido[4,3-b][1,4]oxazin-5-yl]amino]ethyl]benzoic acid]
95 | 100 | Cc1ccc(CN2CCOc3ccnc(N[C@@H](C)c4ccc(C(=O)O)cc4)c32)cc1 [Example B11, 4-[(1S)-1-[[4-(p-tolylmethyl)-2,3-dihydropyrido[4,3-b][1,4]oxazin-5-yl]amino]ethyl]benzoic acid]
53 | 47 | C[C@@H](Nc1nccc2c1N(Cc1ccc(C(F)(F)F)cc1)CCO2)c1ccc(C(=O)O)cc1 [Example B32, 4-[(1R)-1-[[4-[[4-(trifluoromethyl)phenyl]methyl]-2,3-dihydropyrido[4,3-b][1,4]oxazin-5-yl]amino]ethyl]benzoic acid]
92 | 98 | C[C@H](Nc1nccc2c1N(Cc1ccc(C(F)(F)F)o1)CCO2)c1ccc(C(=O)O)cc1 [Example B31, 4-[(1S)-1-[[4-[[5-(trifluoromethyl)-2-furyl]methyl]-2,3-dihydropyrido[4,3-b][1,4]oxazin-5-yl]amino]ethyl]benzoic acid]
92 | 93 | CCONC(=O)c1ccc([C@H](C)Nc2nccc3c2N(Cc2ccc(C(F)(F)F)cc2)CCO3)cc1 [Example D4, N-ethoxy-4-[(1S)-1-[[4-[[4-(trifluoromethyl)phenyl]methyl]-2,3-dihydropyrido[4,3-b][1,4]oxazin-5-yl]amino]ethyl]benzamide]
73 | 84 | CNC(=O)c1ccc([C@H](C)Nc2nccc3c2N(Cc2ccc(C(F)(F)F)cc2)CCO3)cc1 [Example D3, N-methyl-4-[(1S)-1-[[4-[[4-(trifluoromethyl)phenyl]methyl]-2,3-dihydropyrido[4,3-b][1,4]oxazin-5-yl]amino]ethyl]benzamide]
100 | 98 | C[C@H](Nc1nccc2c1N(Cc1cccc(Cl)c1)CCC2)c1ccc(C(=O)O)cc1 [Example B45, 4-[(1S)-1-[[1-[(3-chlorophenyl)methyl]-3,4-dihydro-2H-1,7-naphthyridin-8-yl]amino]ethyl]benzoic acid]
